Results on twelve compounds are retold here after patent publication US20220089540A1 (Board of Trustees of Michigan State University, priority 2019, published 2022).

Several values for one entry are separate records, joined by “and”; a condition that tells them apart may be missing. Equal entries are not always repeated.

One series addresses T1, human RXRa (Homo sapiens, UniProt P19793).
T1 sequence (P19793 1-462): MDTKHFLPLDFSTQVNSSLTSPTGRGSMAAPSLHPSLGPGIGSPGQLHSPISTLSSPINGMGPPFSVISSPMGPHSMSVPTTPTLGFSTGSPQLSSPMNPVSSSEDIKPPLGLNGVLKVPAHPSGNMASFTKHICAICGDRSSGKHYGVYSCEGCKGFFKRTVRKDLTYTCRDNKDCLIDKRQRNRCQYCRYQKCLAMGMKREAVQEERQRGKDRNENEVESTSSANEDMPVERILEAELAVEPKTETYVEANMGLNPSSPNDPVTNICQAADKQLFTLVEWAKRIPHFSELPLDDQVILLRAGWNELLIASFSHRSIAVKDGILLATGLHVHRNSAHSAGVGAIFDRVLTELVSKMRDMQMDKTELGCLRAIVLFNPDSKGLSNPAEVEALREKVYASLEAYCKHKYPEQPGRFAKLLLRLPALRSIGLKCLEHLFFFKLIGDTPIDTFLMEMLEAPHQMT
Description: RXR activation luciferase reporter assay. Format: cell-based. The settings on record: for EC50: Table 6, read-out: RXRα activation (EC50); for RXR assay: luciferase, Control 0, higher numbers indicate higher potency. From the text:
Rexinoids are agonists for the retinoid X receptors (RXRs). In this assay, the human RXRa promoter is functionally linked to a luciferase reporter gene. Changes in luciferase expression served as a sensitive surrogate measure of RXR activity. Higher numbers indicate higher potency.

Series [1] can be described thus: Triglycerides in rodent models. It counts as in vivo.
Series [2] deals with inducible nitric oxide synthase (iNOS). Description: iNOS suppression / NO assay in LPS-stimulated macrophages or RAW264.7 cells (Griess reaction). Format: cell-based, mouse. The settings on record: for activity at 0.1 µM / activity at 0.125 µM / activity at 0.5 µM / activity at 0.3 µM: Mus musculus; for activity at 0.1 µM / activity at 0.3 µM: RAW264.7, 24 h, percent of the LPS-stimulated control, lower is better, Table 6; for activity at 0.125 µM / activity at 0.5 µM: RAW264.7, Control 100, lower numbers indicate higher efficacy, read-out: NO Assay; for activity at 0.125 µM: 125 nM; for activity at 0.5 µM: 500 nM; for activity at 0.3 µM: at 300 nM, read-out: iNOS suppression. In outline: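 RAW264.7 cells or macrophages incubated with rexinoids (300 nM, or 100 nM/300 nM, or a concentration series) and stimulated with 1–2 ng/ml LPS for 24 h. Nitric oxide released into medium measured by Griess reaction; values given as percent of LPS-stimulated control, % inhibition, or IC50.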
(In general: Griess reagent forms a coloured azo dye with nitrite.)

A further series deals with Lung Cancer Model. In words: Lung cancer model rank order. Format: in vivo.
The subject of the next series is SREBP. Description: SREBP induction in human liver (HepG2) cells, RT-PCR. The following applies: for SREBP activation: fold induction compared to DMSO, several values per cell, Table 6; for SREBP: 300 nM, Control 1.00, lower numbers indicate better safety, Table 2. On the set-up: key to SREBP: fold induction vs DMSO control. It counts as cell-based. Here is the method:
The SREBP transcription factor is involved in triglyceride synthesis, and its activation correlates with increased triglycerides in vivo. […] Lower numbers indicate better safety. […] Lower numbers indicate better safety. Also, for Table 6, SREBP activation was measured as fold induction compared to DMSO, where a lower value indicates the compound is an improvement over a control.

A further series concerns PD-L1. Description: PD-L1 induction in macrophages or RAW264.7 cells with cancer cell conditioned media (flow cytometry). Format: cell-based, mouse. The settings on record: for PD-L1: Table 2, Control 39.8, higher numbers indicate better upregulation; for PD-L1 Levels: Table 4, Control 43.3. Here is the method:
RAW 264.7 mouse macrophage-like (ATCC) and E18-14C-27 (Wu et al., Cancer Res. 62, 6376-6380 (2002)) cells were cultured in DMEM supplemented with 10% fetal bovine serum (FBS). RAW 264.7 cells were cultured at 50000/well in a 6 well plate for 24 hours to determine PD-L1 levels. E18-14C-27 cells were cultured for 72 hours in the presence of LG268 for protein levels. Conditioned media was collected from E18-14C-27 at 60-70% confluence for 24 hours; media was then collected and centrifuged at 900 rpm for 5 minutes to eliminate any cell debris.
For PD-L1 staining, RAW 264.7 cells were plated at 25000 cells/ml in 6 well plates for 24 hours before adding conditioned media from E18-14C-27 and LG268. RAW 264.7 cells were cultured for additional 24 hours with E18-14C-27 conditioned media and LG268. […] THP-1 cells were stained and analyzed for the levels of PD-L1 following the same protocol.
Inhibitory receptors on lymphocytes such as PD-1 (programmed cell death protein 1) are important immune checkpoints that protect against autoimmunity as the interaction between PD-L1 (ligand) and the PD-1 receptor expressed on immune cells suppresses T cell activity. Immuno-oncology is revolutionizing cancer treatment, and enormous research efforts are ongoing to identify drugs that upregulate PD-L1 so that they can be combined with checkpoint inhibitors to boost efficacy. Macrophages or RAW264.7 cells are treated with conditioned media from cancer cells and rexinoids, and PD-L1 expression determined by flow cytometry. Higher numbers indicate better upregulation of PD-LI.
Using methods described herein, macrophages or RAW264.7 cells were treated with selected rexinoids and with conditioned media from cancer cells. Structures of the rexinoids are shown below.
PD-L1 expression was determined by flow cytometry.

In a further series the test system is RAR receptor. The following applies: cited from earlier work.
In series [3] the test system is mammary gland tumors of MMTV-Neu mice. Description: MMTV-Neu mouse model of HER2 positive breast cancer, rexinoid in diet. The following applies: 100 mg/kg diet, LG268 5 days.
Description: Tumors or mammary glands were homogenized in EBC buffer (1M Tris pH 8, 5M NaCl) with the same protease inhibitors and 10% NP-40 and incubated on ice for 30 min. Protein concentrations were determined by the BCA assay (Sigma-Aldrich). Proteins were resolved by SDS-PAGE, transferred to a nitrocellulose membrane and analyzed with the following antibodies: vinculin, p-STAT1, p-STAT3, p-STAT5 and mouse and rabbit secondary antibodies (Cell Signaling); PD-1, CD206 (Abcam); PD-L1 (R&D). ImageJ was used to quantify the immunoblots, and results were plotted and statistically analyzed using Prism 6. All images shown are representative of 3 independent experiments.
One third of the tumor, mammary gland and spleen removed from MMTV-neu or MMTV-PyMT mice were minced separately and incubated in digestion media consisting of collagenase (300 U/ml, Sigma), dispase (1 U/ml, Worthington), and DNAse (2 U/ml, Calbiochem) for 30 minutes at 37° C. with stirring. Cells were then passed through a 40 μm cell strainer (BD Falcon), and red blood cells eliminated with lysis solution. […] Propidium iodide staining was used to exclude dead cells.
One third of the tumor, spleen and one mammary was removed from MMTV-neu and PyMT mice and fixed in 10% phosphate-buffered formalin for 48 hours, embedded in paraffin blocks, and sectioned (5-6 μm). Hydrogen peroxide was used to quench endogenous peroxidase activity. Sections were immunostained with antibodies raised against CD206 (1:200, Abcam), Gr1 (1:40, BM8, R&D), CD8 (1:40, Biolegend), FOXP3 (1:50, EBiosciences), PD-1 (1:100, Abcam), PD-L1 (1:50, Abcam), cleaved caspase 3 (Cell Signaling) and visualized with biotinylated anti-rabbit or anti-rat secondary antibodies (Cell Signaling or Vector Labs). Signal was detected using a DAB substrate (Cell Signaling) following the manufacturer's recommendations. Sections were counterstained with hematoxylin (Vector Labs).
Both rexinoid treatments were 100 mg/kg of diet, which is equivalent to 25 mg/kg of body weight (FIG. 1B).
The nature of a further series: LogD at pH 7.4. It counts as physicochemical. The following applies: pH 7.4 buffer. The protocol:
Note that for Table 6, Log D is the distribution constant, which is descriptor of the lipophilicity of a molecule. This was determined using an aqueous phase that was adjusted to pH 7.4 using a buffer.

Series [4] is described as follows: Toxicity in A/J mice with lung tumors fed rexinoids plus carboplatin and paclitaxel. Format: in vivo. The settings on record: 100 mg/kg diet, 7 weeks. Here is the method:
A/J mice with lung tumors (detected by ultrasound) were fed rexinoids in their diets (at 100 mg/kg diet) and injected twice every other week with carboplatin and paclitaxel.

The mark [5] stands for this setting: bexarotene 10 days, western blot.

Usually EC50 stands for the concentration at which the effect is half-maximal. Turning to `CCN(c1ccc(OCC(C)C)c(C(C)C)c1)c1ccc(C(=O)O)cn1` [reference compound], the EC50 at human RXRa lay within 50 to 200 nM. In addition, the “Triglyccerides (Rodent Models)” value in series [1] is “Modest elevation in female rats”.

As to `C/C(=C/C=C/C(C)=C/C(=O)O)c1cc(C(C)(C)C)cc(C(C)(C)C)c1OCC(F)F` [drawing 96], the activity at 0.1 µM in series [2] (at 100 nM) was 30 to 35%. The “Lung Cancer Model Rank Order” value with Lung Cancer Model was 4. Moreover, the “Triglyccerides (Rodent Models)” value in series [1] is on record as “No Elevation”.

`Cc1cc2c(cc1C1(c3ncc(C(=O)O)cn3)CC1)C(C)(C)CCC2(C)C` [drawing 98, reference compound] displayed an activity at 0.1 µM in series [2] (at 100 nM) of approximately 25%. Also, the EC50 at human RXRa was 25 to 50 nM. Besides, in the series with SREBP, the SREBP activation is on record as approximately 1.25 fold induction. Also, the “Lung Cancer Model Rank Order” value with Lung Cancer Model is listed as 3. The “Triglyccerides (Rodent Models)” value in series [1] was “Modest Elevation”.

Turning to `Cc1cc2c(cc1C1(c3ccc(C(=O)O)cn3)CC1)C(C)(C)CCC2(C)C` [drawing 95, reference compound], in series [2] (at 100 nM), the activity at 0.1 µM fell in the range of 15 to 20%. Besides, in the series on SREBP, the SREBP activation is 3.9 fold induction and 3.1 fold induction and 3.2 fold induction. Besides, the “Lung Cancer Model Rank Order” value in the series with Lung Cancer Model was 1. For the same compound, in [1], the “Triglyccerides (Rodent Models)” value is “Elevated”.

As for `C=C(c1ccc(C(=O)O)cc1)c1cc2c(cc1C)C(C)(C)CCC2(C)C` [Bexarotene, bexarotene], in the series with PD-L1 (100 nM), the PD-L1 amounted to 58.5 and the “PD-L1 Levels” value was determined as 51.2. The “PD-L1 Levels” value in the series with PD-L1 (1000 nM) worked out at 64. In addition, in the series with PD-L1 (24 hours), the “PD-L1 levels in RAW 264.7 cells with E18-14C-27C conditioned media” value is “no changes”. In addition, the activity at 0.1 µM in series [2] (at 100 nM) fell in the range of 30 to 35%. Also, in series [2], the activity at 0.125 µM turned out to be 78% and the activity at 0.5 µM was determined as 32.4%. For the same compound, the iNOS in series [2] (at 100 nM, comparators of Table 3) was 22-40% at 100 nM. For the same compound, in the series with SREBP, the SREBP worked out at 2.13; the SREBP activation was 2.7 fold induction and 2.9 fold induction and 1.95 fold induction. In addition, the “Lung Cancer Model Rank Order” value in the series on Lung Cancer Model was 5. For the same compound, the “Triglyccerides (Rodent Models)” value in series [1] is recorded as “Elevated”. Besides, in the series with RAR receptor, the “binding to the RAR receptor” value is given as “limited RAR binding”. Also, in [3] (CW-V-125 10 days, western blot and/or immunohistochemistry), the “PD-L1 expression in tumors vs control” value was “did not significantly induce”. Also, in series [3] (bexarotene 10 days, control 1.9%), the “myeloid derived suppressor cells (CD45+, CD11b+, Gr1+) in tumors” value is “did not alter”. In addition, in [3] (bexarotene 10 days, control diet 3.2%), the “mammary tumor size (tumor weight as percentage of total body weight)” value is “did not reduce”. Besides, the “cleaved caspase 3 in tumors” value in series [3] (bexarotene 10 days, immunohistochemistry) was “did not increase”. Further, in series [3] (setting [5]), the “reduction of CD206 expression in tumor lysates” value was “did not induce a change” and the “reduction of p-STAT1 expression in whole tumor lysates” value is “no changes”.

Take `CCN(c1ccc2c(c1)C(C)(C)CCC2(C)C)c1ccc(C(=O)O)cn1` [reference compound]: the EC50 on human RXRa fell in the range of 1 to 25 nM. The “Triglyccerides (Rodent Models)” value in [1] is given as “Elevated (mice)”.

For `Cc1cc2c(cc1-n1c(C(F)(F)F)nc3cc(C(=O)O)ccc31)C(C)(C)CCC2(C)C` [reference compound], the EC50 on human RXRa fell in the range of 1 to 25 nM. Besides, the “Triglyccerides (Rodent Models)” value in series [1] was “No elevation (mice)”.

`CC(/C=C/[C@@H]1C[C@]1(C)c1cc2c(cc1C)C(C)(C)CCC2(C)C)=C\C(=O)O` [reference compound]: in series [2] (at 100 nM), the activity at 0.1 µM lay in the range of 15 to 20%. Further, the EC50 on human RXRa lay within 1 to 25 nM. The SREBP activation in the series with SREBP is reported as approximately 3.6 fold induction. For the same compound, the “Lung Cancer Model Rank Order” value in the series with Lung Cancer Model was 2. In addition, the “Triglyccerides (Rodent Models)” value in series [1] is given as “Elevated”.

Broadly, the logD is lipophilicity at a set pH, counting ionised and neutral species. `CCN(c1cc(C(F)(F)F)cc(C(F)(F)F)c1)c1ccc(C(=O)O)cn1` [drawing 119] displayed an activity at 0.1 µM in series [2] (at 100 nM) of 24%. For the same compound, in [2], the activity at 0.3 µM turned out to be 15%. In the series on SREBP, the SREBP activation is 0.95 fold induction and 1.2 fold induction. In “LogD at pH 7.4”, this compound yielded a logD of 1.5.

`C=C(c1ccc(C(=O)O)cc1)c1cc(C(C)C)c(OCC)cc1C` [drawing 115]: the activity at 0.3 µM in series [2] stood at 45%. In the series with SREBP, this compound showed an SREBP activation of 1.4 fold induction. The logD in “LogD at pH 7.4” came out at 2.6.

`CC(C)CN(c1cc(C(C)(C)C)cc(C(C)(C)C)c1)c1ccc(C(=O)O)cn1` [Compound 18, 6-[(3,5-di-tert-butylphenyl)(2-methylpropyl)amino]pyridine-3-carboxylic Acid] yielded a PD-L1 in the series with PD-L1 (100 nM) of 58.5. The activity at 0.125 µM in series [2] was 52%. Further, in series [2], the activity at 0.5 µM stood at 11.5%. The RXR assay on human RXRa (100 nM) was found to be 12881; on human RXRa (2500 nM), 35605. The compound also showed an SREBP in the series with SREBP of 1.52. The “toxicity findings (liver, triglycerides, cholesterol, fur)” value was “normal coats” in series [4] and “less toxicity than LG100268” in series [4] (listed as MSU-42011).

As for `C=C(c1ccc(C(=O)O)cc1)c1cc(C(C)C)c(OC(C)C)cc1C` [drawing 114], in [2], the activity at 0.3 µM was 40%. Besides, the SREBP activation with SREBP amounted to 4.7 fold induction. The compound also returned a logD in the series “LogD at pH 7.4” of 3.1.
